Test results from patent publication US20230381160A1, “PROPHYLATIC USE OF CALCIUM CHANNEL BLOCKERS IN TUBERCULOSIS” (priority 2020, published 2023).

System: active TB
Assay: Nested case-control study (NHIRD): drug use and risk of incident active TB
Assay type: in vivo, human
Conditions: incidence of active TB
Source text: National Health Insurance (NHI) program of Taiwan is a compulsory single-payer system that enrolls approximately 24 million residents with 99.8% coverage. We conducted a nested case-control study using the National Health Insurance Research Database (NHIRD) approved from the institutional review board of National Taiwan University Hospital. The NHIRD used a systematic approach to randomly select one million people from the enrollees of NHI, which represents the age, sex, and geographical region distribution of the Taiwanese population. The computerized NHIRD includes information on patient demographics, outpatient and inpatient electronic claim records, individual diagnoses by ICD-9 CM codes, operations, and prescribed medications. Detailed information regarding the name of the prescribed drugs, route of administration, quantity, and number of days of supply are also available. The study was approved by the Institutional Review Board at National Taiwan University Hospital (No. 201311043RINB). Patients' consent was waived because this is an electronic database study using anonymous subjects.
The study cohort consisted of all adult patients (≥18 years old) from the NHIRD that were followed longitudinally between January 1999 and December 2011. We used 1999 as pre-enrollment periods. TB was defined as those with any code for TB according to the ICD-9 CM codes (ICD-9 CM codes: 010-018, including all subcategories). All participants in the study cohort were followed and contributed person-time from the first day of 2000 until the earliest of the following end points: first diagnosis of active TB, termination of health insurance coverage, death, or the end of the study period, whichever came first. The year before the year of TB diagnosis was used for the evaluation of the drug exposure. […]
We assessed the covariates from the cohort entry to the year before the index date. Covariates assessed included: demographics, pre-existing chronic diseases, medications used, and proxy indicators for the lifestyle such as alcohol consumption or smoking related illness, and obesity or malnutrition. […]

COC(=O)C1=C(C)NC(C)=C(C(=O)OC)C1c1ccccc1[N+](=O)[O-] [Nifedipine, nifedipine]
IR % (case/person-years) (average daily dose 10 mg): 0% (0/694) | IR % (case/person-years) (average daily dose 20 mg): 0.34% (6/1,755) | IR % (case/person-years) (average daily dose 30 mg): 0.40% (6/1,499)
